Active and inactive are the calls of the source.
Columns and labels:
[1] = growth inhibition of yeast DHODH-expressing 3D7 parasites – SYBR Green, dry powder samples, dose response (AID 1159570); assay type: functional, cell-based;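 further: parasite growth measured after 72 hours of compound exposure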
[2] = P. falciparum Dd2 growth inhibitors, dose response, SYBR Green, cherry-picked samples (AID 1159567); assay type: functional, cell-based
[3] = growth inhibition of PfATP4-mutant resistant parasites – NITD609-resistant line, SYBR Green, dry powder, dose response (AID 1159571); assay type: functional, cell-based;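 further: parasites synchronized at ring stage by sorbitol before testing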
[4] = Dd2 malaria parasite growth inhibition potency – SYBR Green, dry powder samples, dose response (AID 1159566); assay type: functional, cell-based;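 further: potency for growth inhibition with lower SYBR green DNA signal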
[5] = target: T1, Histone-lysine N-methyltransferase NSD2 (Homo sapiens, UniProt O96028); assay type: biochemical
T1 sequence (O96028 whole entry): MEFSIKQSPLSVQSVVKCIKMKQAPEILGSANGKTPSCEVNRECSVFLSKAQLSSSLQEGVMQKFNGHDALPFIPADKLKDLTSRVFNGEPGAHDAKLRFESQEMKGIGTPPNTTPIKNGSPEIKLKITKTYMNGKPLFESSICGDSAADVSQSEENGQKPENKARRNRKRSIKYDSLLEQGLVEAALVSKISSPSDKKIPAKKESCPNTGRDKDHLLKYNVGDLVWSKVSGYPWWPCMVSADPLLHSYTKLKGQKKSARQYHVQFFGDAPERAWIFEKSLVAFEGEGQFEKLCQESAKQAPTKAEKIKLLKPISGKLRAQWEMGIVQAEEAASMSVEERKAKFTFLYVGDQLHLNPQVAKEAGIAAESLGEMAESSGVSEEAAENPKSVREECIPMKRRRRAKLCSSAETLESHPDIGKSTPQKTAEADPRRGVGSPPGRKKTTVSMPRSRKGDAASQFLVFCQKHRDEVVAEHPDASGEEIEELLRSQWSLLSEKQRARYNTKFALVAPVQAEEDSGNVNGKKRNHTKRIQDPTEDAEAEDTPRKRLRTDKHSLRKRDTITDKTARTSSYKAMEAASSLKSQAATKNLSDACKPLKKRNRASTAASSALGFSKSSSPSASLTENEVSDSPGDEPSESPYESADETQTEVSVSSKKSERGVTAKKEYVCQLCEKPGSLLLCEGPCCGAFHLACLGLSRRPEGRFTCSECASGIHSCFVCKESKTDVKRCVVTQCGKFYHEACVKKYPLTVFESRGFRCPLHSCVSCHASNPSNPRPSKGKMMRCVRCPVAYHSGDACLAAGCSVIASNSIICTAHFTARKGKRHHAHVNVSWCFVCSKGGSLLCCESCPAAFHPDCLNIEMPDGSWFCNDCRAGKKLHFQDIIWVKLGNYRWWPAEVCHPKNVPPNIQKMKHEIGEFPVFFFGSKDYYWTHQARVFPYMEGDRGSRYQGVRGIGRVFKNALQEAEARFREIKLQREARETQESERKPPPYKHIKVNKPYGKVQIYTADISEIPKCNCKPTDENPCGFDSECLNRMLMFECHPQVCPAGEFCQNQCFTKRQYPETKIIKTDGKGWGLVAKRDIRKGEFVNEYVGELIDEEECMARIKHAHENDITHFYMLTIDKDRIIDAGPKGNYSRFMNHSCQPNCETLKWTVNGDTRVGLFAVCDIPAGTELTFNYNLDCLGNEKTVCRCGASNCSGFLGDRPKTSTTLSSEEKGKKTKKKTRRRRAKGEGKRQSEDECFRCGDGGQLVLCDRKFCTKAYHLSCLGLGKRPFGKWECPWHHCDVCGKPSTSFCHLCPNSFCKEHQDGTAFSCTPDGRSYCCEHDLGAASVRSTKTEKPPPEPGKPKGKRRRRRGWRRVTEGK

[6] = target: Peroxisome proliferator-activated receptor gamma/Nuclear receptor coactivator 2 (Homo sapiens, UniProt P37231); assay type: functional;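 further: agonist potency for raising coactivator recruitment to the receptor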
[7] = target: Peroxisome proliferator-activated receptor gamma/Nuclear receptor coactivator 1 (Homo sapiens, UniProt P37231); assay type: functional;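 further: agonist potency as compounds enhance coactivator SRC-1 recruitment to PPARgamma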
[8] = target: Peroxisome proliferator-activated receptor gamma/Nuclear receptor coactivator 3 (Homo sapiens, UniProt P37231); assay type: functional;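 further: agonist potency for raising coactivator recruitment to the receptor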
[9] = target: Mitogen-activated protein kinase 10 (Homo sapiens, UniProt P53779); assay: Dose response biochemical screening assay for inhibitors of c-Jun N-Terminal Kinase 3 (JNK3). [Related pubchem assays: 746 ]
[10] = system: H9c2; assay: cells; assay type: functional, cell-based; conditions: Rattus norvegicus, H9c2, Myocardium;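 further: confirmatory concentration-response retest of ultra-high-throughput screening hits for modulation of myocardial damage; cell death induced by hydrogen peroxide oxidative stress; compound pretreatment for 60 min then peroxide exposure for 2 h; potency is for protecting the cells against peroxide damage rather than for killing them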
[11] = NIH3T3 cell viability loss – ATP luminescence, mouse fibroblasts, counter-screen, dose response (AID 2010); assay type: functional, cell-based;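 further: cells exposed to compound for about 90 hours before reading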
[12] = general mammalian cell viability loss – inhibitor set, cherry-pick, set 2, cytotoxicity control for miR-122 modulator project, dose response (AID 720697); assay type: functional, cell-based
[13] = target: T2, Protein skinhead-1 (Caenorhabditis elegans, UniProt P34707); assay type: functional
T2 sequence (P34707 whole entry): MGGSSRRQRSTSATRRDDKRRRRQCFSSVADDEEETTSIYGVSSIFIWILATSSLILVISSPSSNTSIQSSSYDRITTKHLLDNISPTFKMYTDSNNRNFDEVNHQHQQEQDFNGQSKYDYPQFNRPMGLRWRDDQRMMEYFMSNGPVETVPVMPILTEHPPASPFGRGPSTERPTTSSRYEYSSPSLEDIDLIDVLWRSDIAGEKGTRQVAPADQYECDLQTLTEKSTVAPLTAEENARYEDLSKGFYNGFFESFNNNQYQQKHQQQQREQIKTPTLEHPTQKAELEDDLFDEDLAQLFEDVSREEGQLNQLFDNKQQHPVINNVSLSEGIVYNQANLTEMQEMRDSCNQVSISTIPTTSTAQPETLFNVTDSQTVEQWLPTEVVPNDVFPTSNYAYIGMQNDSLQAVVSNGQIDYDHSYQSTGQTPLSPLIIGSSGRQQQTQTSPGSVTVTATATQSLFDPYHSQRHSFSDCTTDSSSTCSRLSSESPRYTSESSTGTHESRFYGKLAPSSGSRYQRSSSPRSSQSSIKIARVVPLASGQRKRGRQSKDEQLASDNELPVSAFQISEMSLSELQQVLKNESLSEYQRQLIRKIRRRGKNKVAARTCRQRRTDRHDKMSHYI

[14] = Trypanosoma cruzi growth suppression in host cells – NIH3T3 host cells, beta-gal luminescence, confirmation (AID 2044); assay type: functional, cell-based;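 further: intracellular parasites grown in NIH/3T3 mouse fibroblasts as host cells; luminescent beta-galactosidase reporter signal from transgenic T. cruzi replicating inside host cells; inhibitors lower the luminescence signal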
[15] = target: Luciferin 4-monooxygenase (Photinus pyralis, UniProt P08659); assay: Counter Screen for Luciferase-based Assay Positives. [Related pubchem assays: 620, 618, 411 ]
[16] = target: Glyceraldehyde-3-phosphate dehydrogenase (Homo sapiens, UniProt P04406)
[17] = target: T3, Microphthalmia-associated transcription factor (Homo sapiens, UniProt O75030); assay: reducers of TRPM1 reporter luminescence, concentration series – cell-based, SK-MEL-5, cherry-picked, set 3, MITF inhibitor project, dose response (AID 493073); assay type: functional;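 further: SK-MEL-5 melanoma cells with luciferase driven by the MITF target TRPM1 promoter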
T3 sequence (O75030 whole entry): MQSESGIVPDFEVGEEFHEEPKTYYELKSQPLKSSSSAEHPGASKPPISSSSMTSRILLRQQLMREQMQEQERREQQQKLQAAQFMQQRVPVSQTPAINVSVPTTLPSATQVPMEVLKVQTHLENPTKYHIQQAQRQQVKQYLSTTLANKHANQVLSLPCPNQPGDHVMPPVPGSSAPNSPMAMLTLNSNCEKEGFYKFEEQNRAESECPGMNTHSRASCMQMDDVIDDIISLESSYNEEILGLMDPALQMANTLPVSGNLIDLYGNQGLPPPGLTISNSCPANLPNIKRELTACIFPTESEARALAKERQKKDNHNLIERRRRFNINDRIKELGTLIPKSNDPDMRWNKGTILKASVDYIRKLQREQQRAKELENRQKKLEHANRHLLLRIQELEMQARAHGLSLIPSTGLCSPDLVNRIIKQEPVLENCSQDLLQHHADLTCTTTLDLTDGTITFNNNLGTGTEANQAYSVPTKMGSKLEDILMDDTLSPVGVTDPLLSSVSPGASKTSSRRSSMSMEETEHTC

[18] = target: T4, Heat shock factor protein 1 (Mus musculus, UniProt P38532); assay: decrease of HSF1-responsive luciferase luminescence – cell-based, NIH3T3, dose retest, confirmation (AID 2382); assay type: functional;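 further: NIH3T3 fibroblasts with HSF1-driven luciferase reporter stressed by proteasome inhibitor MG132; luminescence from HSF1-driven luciferase expression after 8 hours of MG132 stress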
T4 sequence (P38532 whole entry): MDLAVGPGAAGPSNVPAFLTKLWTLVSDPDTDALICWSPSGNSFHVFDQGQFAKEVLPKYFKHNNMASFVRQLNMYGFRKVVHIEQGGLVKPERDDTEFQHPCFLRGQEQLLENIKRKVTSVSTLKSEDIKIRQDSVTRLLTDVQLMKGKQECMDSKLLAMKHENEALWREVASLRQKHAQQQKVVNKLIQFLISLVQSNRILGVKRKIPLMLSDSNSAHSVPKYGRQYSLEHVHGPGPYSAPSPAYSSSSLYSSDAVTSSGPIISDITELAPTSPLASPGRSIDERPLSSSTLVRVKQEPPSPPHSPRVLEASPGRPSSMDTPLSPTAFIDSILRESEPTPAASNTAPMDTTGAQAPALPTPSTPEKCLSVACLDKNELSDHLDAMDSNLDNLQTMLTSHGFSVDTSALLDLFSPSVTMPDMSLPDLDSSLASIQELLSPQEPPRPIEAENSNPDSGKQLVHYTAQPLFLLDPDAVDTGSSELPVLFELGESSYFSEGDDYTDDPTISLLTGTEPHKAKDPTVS

[19] = system: HT-1080; assay: HT1080 cell viability loss – fluorescence readout (AID 620); assay type: functional, cell-based; conditions: Homo sapiens
[20] = Luminescence Cell-Based Dose Retest to Confirm Inhibitors of Cancer Stem Cells. [Related pubchem assays (depositor defined):AID2717, AID2721]; assay type: functional; conditions: Homo sapiens
[21] = viability loss of HPDE-C7K cells – cell-based, fluorescence, HTS, primary screen (AID 431); assay type: functional; conditions: Homo sapiens
[22] = HPDE-C7 pancreatic duct cell viability loss – fluorescence, HTS (AID 430); assay type: functional, cell-based; conditions: Homo sapiens
[23] = cells; assay type: functional
[24] = THP-1 cell cytotoxicity, dose response, cytotoxicity control for non-replicating M. tuberculosis project (AID 489025); assay type: functional
[25] = viability inhibitors of stage V gametocytes – luminescence, dose response (AID 1117278); assay type: functional, cell-based;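 further: gametocytes exposed to compound for 24 hours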
[26] = viability loss in human Jurkat cells – cell-based, luminescence, cytotoxicity control for P. falciparum gametocyte viability project, dose response (AID 1117277); assay type: functional;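 further: potency reflects loss of cellular ATP meaning fewer viable cells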
[27] = microbe, parasite or virus in culture; assay type: functional; conditions: Mycobacterium tuberculosis

Sequence of Mitogen-activated protein kinase 10 (P53779 whole entry): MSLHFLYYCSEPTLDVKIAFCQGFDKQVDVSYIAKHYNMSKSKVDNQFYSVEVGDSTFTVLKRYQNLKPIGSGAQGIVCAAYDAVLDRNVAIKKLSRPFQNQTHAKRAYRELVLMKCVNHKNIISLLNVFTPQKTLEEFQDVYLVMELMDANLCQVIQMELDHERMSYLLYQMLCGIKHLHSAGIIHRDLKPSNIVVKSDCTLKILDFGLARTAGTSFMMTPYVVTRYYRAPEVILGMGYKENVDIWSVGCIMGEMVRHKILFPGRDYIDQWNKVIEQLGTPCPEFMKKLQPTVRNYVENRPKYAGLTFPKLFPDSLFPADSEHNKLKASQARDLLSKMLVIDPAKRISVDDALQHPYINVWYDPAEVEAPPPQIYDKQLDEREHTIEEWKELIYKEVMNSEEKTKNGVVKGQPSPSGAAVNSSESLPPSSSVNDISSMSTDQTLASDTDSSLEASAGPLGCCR
Sequence of Peroxisome proliferator-activated receptor gamma/Nuclear receptor coactivator 1 (P37231 whole entry): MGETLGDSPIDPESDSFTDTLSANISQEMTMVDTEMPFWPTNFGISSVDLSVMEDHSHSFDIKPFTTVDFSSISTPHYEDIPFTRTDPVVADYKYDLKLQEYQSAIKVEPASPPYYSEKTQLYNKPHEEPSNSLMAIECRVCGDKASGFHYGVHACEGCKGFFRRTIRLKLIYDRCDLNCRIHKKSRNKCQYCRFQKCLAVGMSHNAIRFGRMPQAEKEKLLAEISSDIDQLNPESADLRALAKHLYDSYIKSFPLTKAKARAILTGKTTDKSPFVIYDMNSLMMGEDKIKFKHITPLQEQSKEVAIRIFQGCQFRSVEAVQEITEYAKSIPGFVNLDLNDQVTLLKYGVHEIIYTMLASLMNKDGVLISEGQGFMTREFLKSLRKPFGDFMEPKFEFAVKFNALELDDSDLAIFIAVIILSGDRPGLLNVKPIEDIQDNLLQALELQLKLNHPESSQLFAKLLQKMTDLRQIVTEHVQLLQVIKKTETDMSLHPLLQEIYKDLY
Sequence of Peroxisome proliferator-activated receptor gamma/Nuclear receptor coactivator 1 (Q15788 whole entry, further chain): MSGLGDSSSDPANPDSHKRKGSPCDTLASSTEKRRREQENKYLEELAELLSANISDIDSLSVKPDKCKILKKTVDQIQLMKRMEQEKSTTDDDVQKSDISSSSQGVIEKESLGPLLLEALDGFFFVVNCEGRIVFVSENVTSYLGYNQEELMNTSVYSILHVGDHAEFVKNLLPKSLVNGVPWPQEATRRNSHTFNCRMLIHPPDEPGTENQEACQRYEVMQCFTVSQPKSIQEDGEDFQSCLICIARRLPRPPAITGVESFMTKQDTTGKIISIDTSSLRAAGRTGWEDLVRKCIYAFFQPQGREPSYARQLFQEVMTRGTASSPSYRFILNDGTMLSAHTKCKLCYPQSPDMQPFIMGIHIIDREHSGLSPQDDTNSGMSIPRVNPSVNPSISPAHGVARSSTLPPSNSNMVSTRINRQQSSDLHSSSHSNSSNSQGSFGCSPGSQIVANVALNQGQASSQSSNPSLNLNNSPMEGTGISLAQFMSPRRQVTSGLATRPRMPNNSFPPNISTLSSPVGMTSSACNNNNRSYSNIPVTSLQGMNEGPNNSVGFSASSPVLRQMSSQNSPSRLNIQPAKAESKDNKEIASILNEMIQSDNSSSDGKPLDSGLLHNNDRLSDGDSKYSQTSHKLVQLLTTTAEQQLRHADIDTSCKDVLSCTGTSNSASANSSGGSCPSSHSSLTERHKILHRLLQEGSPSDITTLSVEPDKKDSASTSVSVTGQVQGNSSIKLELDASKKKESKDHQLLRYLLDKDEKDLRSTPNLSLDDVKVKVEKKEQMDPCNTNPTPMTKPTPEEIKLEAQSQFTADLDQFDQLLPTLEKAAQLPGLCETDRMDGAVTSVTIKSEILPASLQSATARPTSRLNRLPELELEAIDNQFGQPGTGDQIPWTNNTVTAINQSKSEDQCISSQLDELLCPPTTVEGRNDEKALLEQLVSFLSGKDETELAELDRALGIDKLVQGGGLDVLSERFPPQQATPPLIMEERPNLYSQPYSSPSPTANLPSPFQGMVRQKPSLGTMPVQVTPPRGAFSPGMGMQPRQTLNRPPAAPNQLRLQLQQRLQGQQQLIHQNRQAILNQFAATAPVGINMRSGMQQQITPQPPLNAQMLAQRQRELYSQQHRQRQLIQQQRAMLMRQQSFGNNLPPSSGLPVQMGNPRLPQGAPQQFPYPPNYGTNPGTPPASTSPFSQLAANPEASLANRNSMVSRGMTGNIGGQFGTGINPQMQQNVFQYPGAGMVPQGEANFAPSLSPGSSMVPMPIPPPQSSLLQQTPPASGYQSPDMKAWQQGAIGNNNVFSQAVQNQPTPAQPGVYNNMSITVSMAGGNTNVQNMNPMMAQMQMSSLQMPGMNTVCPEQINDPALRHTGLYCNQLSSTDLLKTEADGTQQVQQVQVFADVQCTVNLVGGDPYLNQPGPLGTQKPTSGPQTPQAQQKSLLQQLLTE
Sequence of Peroxisome proliferator-activated receptor gamma/Nuclear receptor coactivator 3 (P37231 whole entry): as the sequence (P37231 whole entry) above
Sequence of Peroxisome proliferator-activated receptor gamma/Nuclear receptor coactivator 3 (Q9Y6Q9 whole entry, further chain): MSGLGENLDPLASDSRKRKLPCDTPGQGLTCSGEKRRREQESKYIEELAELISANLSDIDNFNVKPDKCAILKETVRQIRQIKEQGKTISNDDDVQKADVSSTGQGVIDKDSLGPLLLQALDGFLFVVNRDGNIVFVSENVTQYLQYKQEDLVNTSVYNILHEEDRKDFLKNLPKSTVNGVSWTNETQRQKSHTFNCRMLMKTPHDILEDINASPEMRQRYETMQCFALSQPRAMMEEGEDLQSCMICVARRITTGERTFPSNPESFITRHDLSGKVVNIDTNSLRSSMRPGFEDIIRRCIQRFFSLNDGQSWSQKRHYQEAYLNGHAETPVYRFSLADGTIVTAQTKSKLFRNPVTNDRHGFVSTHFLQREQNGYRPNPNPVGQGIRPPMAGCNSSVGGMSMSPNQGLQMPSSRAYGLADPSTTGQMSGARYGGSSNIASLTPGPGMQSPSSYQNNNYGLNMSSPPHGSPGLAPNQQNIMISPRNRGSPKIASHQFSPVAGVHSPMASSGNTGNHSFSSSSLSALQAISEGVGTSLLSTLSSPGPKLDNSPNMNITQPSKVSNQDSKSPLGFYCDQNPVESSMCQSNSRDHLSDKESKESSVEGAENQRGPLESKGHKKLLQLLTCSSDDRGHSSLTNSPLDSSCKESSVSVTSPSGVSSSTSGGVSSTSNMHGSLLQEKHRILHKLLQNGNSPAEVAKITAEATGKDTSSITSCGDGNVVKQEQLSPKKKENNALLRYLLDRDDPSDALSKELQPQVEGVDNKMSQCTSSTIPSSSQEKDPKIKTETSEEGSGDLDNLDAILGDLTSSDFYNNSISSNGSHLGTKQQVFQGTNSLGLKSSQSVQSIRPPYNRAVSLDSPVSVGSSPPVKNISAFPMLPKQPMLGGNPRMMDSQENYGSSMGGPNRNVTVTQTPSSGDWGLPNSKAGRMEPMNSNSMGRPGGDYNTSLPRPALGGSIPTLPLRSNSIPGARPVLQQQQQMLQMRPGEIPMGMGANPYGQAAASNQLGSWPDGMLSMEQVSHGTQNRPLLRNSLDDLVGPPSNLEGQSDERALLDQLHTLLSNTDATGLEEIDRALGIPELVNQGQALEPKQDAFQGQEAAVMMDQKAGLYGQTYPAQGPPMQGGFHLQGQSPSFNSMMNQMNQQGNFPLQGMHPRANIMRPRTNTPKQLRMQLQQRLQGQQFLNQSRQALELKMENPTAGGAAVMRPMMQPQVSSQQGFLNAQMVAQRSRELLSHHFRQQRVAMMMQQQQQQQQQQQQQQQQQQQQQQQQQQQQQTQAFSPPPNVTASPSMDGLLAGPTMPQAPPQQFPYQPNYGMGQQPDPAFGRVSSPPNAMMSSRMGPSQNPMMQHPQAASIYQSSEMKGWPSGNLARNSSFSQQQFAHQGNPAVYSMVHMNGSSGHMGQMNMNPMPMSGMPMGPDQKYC
Sequence of Glyceraldehyde-3-phosphate dehydrogenase (P04406 whole entry): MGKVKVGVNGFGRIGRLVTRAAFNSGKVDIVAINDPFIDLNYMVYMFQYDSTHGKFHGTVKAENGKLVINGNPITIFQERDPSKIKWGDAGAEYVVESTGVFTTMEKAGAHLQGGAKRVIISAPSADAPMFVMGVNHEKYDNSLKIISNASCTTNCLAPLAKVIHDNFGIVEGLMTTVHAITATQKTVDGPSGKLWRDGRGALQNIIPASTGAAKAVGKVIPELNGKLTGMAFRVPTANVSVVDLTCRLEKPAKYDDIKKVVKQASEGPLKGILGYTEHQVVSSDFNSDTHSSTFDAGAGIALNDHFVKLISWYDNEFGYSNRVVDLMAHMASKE

C[C@H](CO)N1C[C@H](C)[C@H](CN(C)S(=O)(=O)c2ccc(C#N)cc2)OCc2ccccc2-c2c(n(C)c3ccccc23)C1=O
AC50 [1]: 0.563 µM (active) | AC50 [2]: 1.25 µM (active) | AC50 [3]: 0.41 µM (active) | AC50 [4]: 0.314 µM (active)

CNCCCOc1cccc(OC(C)C)c1
AC50 [5]: 17.3 µM (active)

CCN(CC)CCCNC(=O)c1ccc2c(SCC(=O)O)c3c(nc2c1)CCC3
EC50 [6]: > 79.4 µM (not active) | EC50 [7]: > 79.4 µM (not active) | EC50 [8]: > 79.4 µM (not active)

COc1ccc(OC)c(Nc2nc(N)nc(-c3cc4ccccc4o3)n2)c1
IC50 [9]: 47.8 µM (not active) | IC50 [10]: > 79 µM (inactive)

N=c1c2c(-c3ccccc3)c(-c3ccccc3)n(Cc3ccccc3)c2ncn1CCCO
EC50 [11]: > 60 µM (inconclusive) | AC50 [12]: 7.08 µM (active) | IC50 [13]: > 100 µM (inactive) | EC50 [14]: 1.26 µM (active)

Cc1ccccc1-n1c(S)nnc1-c1ccco1
EC50 [6]: > 79.4 µM (not active) | EC50 [7]: > 79.4 µM (not active) | EC50 [8]: > 79.4 µM (not active)

C/C=C/c1ccc([C@H]2[C@@H](CO)N[C@@H]2CN(CC)C(=O)CN2CCOCC2)cc1
AC50 [12]: 47.6 µM (active)

NC(N)=Nc1nc(CSCCC(N)=NS(N)(=O)=O)cs1 [FAMOTIDINE]
EC50 [6]: > 79.4 µM (not active) | EC50 [7]: > 79.4 µM (not active) | EC50 [8]: > 79.4 µM (not active)

CN(C)/C=N/C(=O)/C(C#N)=C1\CCc2ccccc2N1
IC50 [9]: > 93.1 µM (not active)

Cc1cc(C(=O)Nc2cccc(C(=O)O)c2)oc1C
EC50 [15]: < 0.2 µM (active) | IC50 [16]: > 100 µM (not active) | AC50 [17]: 4.35 µM (active) | EC50 [18]: 6.56 µM (active) | EC50 [19]: > 50 µM (not active)

CC(C)(C)c1nc(N2CCN(C(=O)c3ccco3)CC2)c2nnn(Cc3ccccc3Cl)c2n1
AC50 [20]: 3.44 µM (active) | EC50 [21]: 5.38 µM (active) | EC50 [22]: 4.47 µM (active)

Nc1nc2ccccc2n1CCOc1ccc(Br)cc1
IC50 [23]: 31.8 µM (active) | CC50 [24]: 39.4 µM (active)

CCCn1c(=S)[nH]c2cc(C(=O)N3CCc4ccccc4C3)ccc2c1=O
IC50 [25]: > 109 µM (inactive) | IC50 [26]: > 83.3 µM (inactive)

COc1ccc(-c2cc3nnc(-c4ccccc4)nc3s2)cc1
EC50 [15]: 0.27 µM (active) | IC50 [16]: > 100 µM (not active) | EC50 [19]: > 50 µM (not active)

COc1ccc(C#Cc2ccc3c(c2)O[C@@H](CN(C)C(=O)Nc2cccc(OC)c2)[C@H](C)CN([C@H](C)CO)S3(=O)=O)cc1
AC50 [1]: 0.799 µM (active) | AC50 [2]: 1.5 µM (active) | AC50 [3]: 0.986 µM (active) | AC50 [4]: 0.662 µM (active)

COCCCNC(=O)c1c(N)n(/N=C/c2cccs2)c2nc3ccccc3nc12
EC50 [21]: > 20 µM (not active) | EC50 [22]: 9.78 µM (active)

COc1ccc(-c2c3c([nH]c(=S)c2C#N)CCC3)cc1
IC50 [9]: 17.6 µM (not active)

O=C(CCCn1c(=O)[nH]c2cc(Cl)ccc2c1=O)NCCCN1CCCC1
IC50 [25]: > 109 µM (inactive) | IC50 [26]: > 83.3 µM (inactive)

O=C(Cc1c[nH]c2ccccc12)Nc1nccs1
IC50 [25]: > 109 µM (inactive) | IC50 [26]: > 83.3 µM (inactive)

Cc1ccc(NC(=O)C2CCN(c3nc(C)cc(C)n3)CC2)cc1
IC50 [25]: > 109 µM (inactive) | IC50 [26]: > 83.3 µM (inactive)

CCn1c(C(C)NC(C)=O)nc2ccccc21 (centres undefined)
IC50 [9]: > 93.1 µM (not active)

COc1cccc(N2CCN(c3[nH]cnc4c5ccccc5nc3-4)CC2C)c1 (centres undefined)
CC50 [27]: 7.28 µM (active) | EC50 [21]: 3.01 µM (active) | EC50 [22]: 3.33 µM (active)

Reference: ChEMBL document CHEMBL1201862, “PubChem BioAssay data set” (2004)
